Assay results reported in patent US7468394B1, “Sterile pharmaceutical composition and process for a solution of propofol emulsion having microbial growth retardation” (priority 2003, dated 2008).

Description: Propofol has limited water solubility, however it is easy to dissolve in soybean oil. As such, it must be incorporated with a solubilizing agent, surfactants or solvents to generate oil-in-water emulsions. The oil component of the emulsion is contained within a shell of the surfactants (egg lecithin), thus forming a “sunflower” structure, which can be seen in Table 1. Currently marketed propofol products are available as oil-in-water emulsions.

For `CC(C)c1cccc(C(C)C)c1O` [propofol, 2,6-Diisopropylphenol], the “partition coefficient of propofol between soybean oil and water” value was 4,220.
